Assay results from patent US9580444B2, “Polycyclic pyrazolinone derivative and herbicide comprising same as effective component thereof” (priority 2013, dated 2017).

Key:
Format in all cases: in vivo
corn [1] = assay: Test Example-2: phytotoxicity by a soil treatment before weeds are generated under upland field conditions; details: application amount 500 g a.i/ha, soil spray treatment before weeds are generated, about 21 days after the treatment, score 0 to 5
Source text: (§1) Using the formulation prepared according to the methods described above, the herbicidal effect of the bicyclic pyrazolinone derivative of the invention according to the methods shown in Test Examples below was examined. The herbicidal effect with respect to the test weeds or the phytotoxicity with respect to the test crops was examined according to the following criteria, and evaluated in six stage scores of 0 to 5. A vat having an area of 81 cm^2 and a depth of 3.5 cm was filled with upland soil, then, seeds of Amaranthus viridis (green amaranthus), Chenopodium album (common lambsquarters), and corn were seeded thereto, and the seeds were covered with soil of about 0.5 cm. Next day, a wettable powder or an emulsifiable concentrate of the compound of the present invention prepared according to Formulation Example was diluted, and a spray treatment was uniformly performed on the covered oil so as to be a predetermined dosage. The herbicidal effect with respect to the test weeds and the phytotoxicity with respect to corn about 21 days after the treatment were evaluated according to the evaluation criteria in six stages of 0 to 5 described above.

[2] = test system: Eleocharis acicularis (needle spikerush); assay: Test Example-1: herbicidal effect by a treatment before weeds are generated under submerged conditions; details: 500 g a.i/ha, pre-emergence treatment, about 15 days after treatment, score 0-5
How it was run: (§2)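 Scores (0–5, six stages) reflect visual weed control about 15 days after a same-day water application of the diluted formulated compound to freshly seeded, flooded paddy soil.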

[3] = test system: Echinochloa oryzicola (barnyard grass); assay: as above; details: 500 g a.i/ha, pre-emergence treatment, about 15 days after treatment, score 0-5
How it was run: as §2

[4] = test system: other annual broad leaf weeds (Lindernia procumbens, Rotala indica, Elatine triandra); assay: as above; details: 500 g a.i/ha, pre-emergence treatment, about 15 days after treatment, score 0-5
How it was run: as §2

[5] = test system: Cyperus difformis (smallflower umbrella plant); assay: as above; details: 500 g a.i/ha, pre-emergence treatment, about 15 days after treatment, score 0-5
How it was run: as §2

[6] = test system: Scirpus juncoides (bulrush); assay: as above; details: 500 g a.i/ha, pre-emergence treatment, about 15 days after treatment, score 0-5
How it was run: as §2

[7] = test system: Monochoria vaginalis (monochoria); assay: as above; details: 500 g a.i/ha, pre-emergence treatment, about 15 days after treatment, score 0-5
How it was run: as §2

[8] = test system: Chenopodium album (common lambsquarters); assay: Test Example-2: herbicidal effect by a soil treatment before weeds are generated under upland field conditions; details: application amount 500 g a.i/ha, soil spray treatment before weeds are generated, about 21 days after the treatment, score 0 to 5
Source text: as §1

[9] = test system: Amaranthus viridis (green amaranthus); assay: as above; details: application amount 500 g a.i/ha, soil spray treatment before weeds are generated, about 21 days after the treatment, score 0 to 5
Source text: as §1

corn [10] = assay: Test Example-4: phytotoxicity by a foliage treatment after weeds are generated under upland field conditions; details: 500 g a.i/ha, foliage treatment after emergence, about 14 days after treatment, score 0-5
How it was run: (§3)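 Post-emergence foliar treatment: seedlings raised 14 days in watered upland soil are sprayed with the diluted formulation at a predetermined dose, using a spray volume of 4000 L/ha. Effects on weeds and on corn are rated 0–5 roughly two weeks afterwards.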

[11] = test system: Abutilon theophrasti (velvetleaf); assay: Test Example-4: herbicidal effect by a foliage treatment after weeds are generated under upland field conditions; details: 500 g a.i/ha, foliage treatment after emergence, about 14 days after treatment, score 0-5
How it was run: as §3

[12] = test system: Chenopodium album (common lambsquarters); assay: as above; details: 500 g a.i/ha, foliage treatment after emergence, about 14 days after treatment, score 0-5
How it was run: as §3

[13] = test system: Amaranthus viridis (green amaranthus); assay: as above; details: 500 g a.i/ha, foliage treatment after emergence, about 14 days after treatment, score 0-5
How it was run: as §3

COc1cc(-c2c(Cl)n3n(c2=O)CCOCC3)c(F)cc1F [Example 1-89]
Phytotoxicity Corn (corn [1]): 0 (Herbicidal effect/phytotoxicity was 0% to 10%) | Herbicidal effect Eleocharis acicularis [2]: 5 (Herbicidal effect/phytotoxicity was 90% or greater) | Herbicidal effect Echinochloa oryzicola [3]: 5 (Herbicidal effect/phytotoxicity was 90% or greater) | Herbicidal effect Broadleaf weed [4]: 5 (Herbicidal effect/phytotoxicity was 90% or greater) | Herbicidal effect Cyperus difformis [5]: 5 (Herbicidal effect/phytotoxicity was 90% or greater) | Herbicidal effect Scirpus juncoides [6]: 5 (Herbicidal effect/phytotoxicity was 90% or greater) | Herbicidal effect Monochoria vaginalis [7]: 5 (Herbicidal effect/phytotoxicity was 90% or greater) | Herbicidal effect Chenopodium album [8]: 5 (Herbicidal effect/phytotoxicity was 90% or greater) | Herbicidal effect Amaranthus viridis [9]: 5 (Herbicidal effect/phytotoxicity was 90% or greater)

CC(C)Oc1cc(-c2c(Cl)n3n(c2=O)CCCC3)c(F)cc1Cl [Example 1-151]
Phytotoxicity Corn (corn [1]): 0 (Herbicidal effect/phytotoxicity was 0% to 10%) | Phytotoxicity Corn (corn [10]): 1 (Herbicidal effect/phytotoxicity was 10% to 30%) | Herbicidal effect Eleocharis acicularis [2]: 5 (Herbicidal effect/phytotoxicity was 90% or greater) | Herbicidal effect Echinochloa oryzicola [3]: 5 (Herbicidal effect/phytotoxicity was 90% or greater) | Herbicidal effect Broadleaf weed [4]: 5 (Herbicidal effect/phytotoxicity was 90% or greater) | Herbicidal effect Cyperus difformis [5]: 5 (Herbicidal effect/phytotoxicity was 90% or greater) | Herbicidal effect Scirpus juncoides [6]: 5 (Herbicidal effect/phytotoxicity was 90% or greater) | Herbicidal effect Monochoria vaginalis [7]: 5 (Herbicidal effect/phytotoxicity was 90% or greater) | Herbicidal effect Abutilon theophrast [11]: 5 (Herbicidal effect/phytotoxicity was 90% or greater) | Herbicidal effect Chenopodium album [12]: 5 (Herbicidal effect/phytotoxicity was 90% or greater) | Herbicidal effect Amaranthus viridis [13]: 5 (Herbicidal effect/phytotoxicity was 90% or greater) | Herbicidal effect Chenopodium album [8]: 5 (Herbicidal effect/phytotoxicity was 90% or greater) | Herbicidal effect Amaranthus viridis [9]: 5 (Herbicidal effect/phytotoxicity was 90% or greater)

O=c1c(-c2cc(OC3CCCC3)c(Cl)cc2F)c(Cl)n2n1CCCC2 [Example 1-181]
Phytotoxicity Corn (corn [1]): 0 (Herbicidal effect/phytotoxicity was 0% to 10%) | Phytotoxicity Corn (corn [10]): 1 (Herbicidal effect/phytotoxicity was 10% to 30%) | Herbicidal effect Eleocharis acicularis [2]: 5 (Herbicidal effect/phytotoxicity was 90% or greater) | Herbicidal effect Echinochloa oryzicola [3]: 5 (Herbicidal effect/phytotoxicity was 90% or greater) | Herbicidal effect Broadleaf weed [4]: 5 (Herbicidal effect/phytotoxicity was 90% or greater) | Herbicidal effect Cyperus difformis [5]: 5 (Herbicidal effect/phytotoxicity was 90% or greater) | Herbicidal effect Scirpus juncoides [6]: 5 (Herbicidal effect/phytotoxicity was 90% or greater) | Herbicidal effect Monochoria vaginalis [7]: 5 (Herbicidal effect/phytotoxicity was 90% or greater) | Herbicidal effect Abutilon theophrast [11]: 5 (Herbicidal effect/phytotoxicity was 90% or greater) | Herbicidal effect Chenopodium album [12]: 5 (Herbicidal effect/phytotoxicity was 90% or greater) | Herbicidal effect Amaranthus viridis [13]: 5 (Herbicidal effect/phytotoxicity was 90% or greater) | Herbicidal effect Chenopodium album [8]: 5 (Herbicidal effect/phytotoxicity was 90% or greater) | Herbicidal effect Amaranthus viridis [9]: 5 (Herbicidal effect/phytotoxicity was 90% or greater)

C#CCOc1cc(-c2c(Cl)n3n(c2=O)CCCCC3)c(F)cc1Cl [Example 1-239]
Phytotoxicity Corn (corn [1]): 0 (Herbicidal effect/phytotoxicity was 0% to 10%) | Phytotoxicity Corn (corn [10]): 2 (Herbicidal effect/phytotoxicity was 30% to 50%) | Herbicidal effect Abutilon theophrast [11]: 5 (Herbicidal effect/phytotoxicity was 90% or greater) | Herbicidal effect Chenopodium album [12]: 5 (Herbicidal effect/phytotoxicity was 90% or greater) | Herbicidal effect Amaranthus viridis [13]: 5 (Herbicidal effect/phytotoxicity was 90% or greater) | Herbicidal effect Chenopodium album [8]: 5 (Herbicidal effect/phytotoxicity was 90% or greater) | Herbicidal effect Amaranthus viridis [9]: 5 (Herbicidal effect/phytotoxicity was 90% or greater)

COc1cc(-c2c(Cl)n3n(c2=O)CCOCC3)c(Cl)cc1Cl [Example 1-296]
Phytotoxicity Corn (corn [1]): 0 (Herbicidal effect/phytotoxicity was 0% to 10%) | Herbicidal effect Eleocharis acicularis [2]: 5 (Herbicidal effect/phytotoxicity was 90% or greater) | Herbicidal effect Echinochloa oryzicola [3]: 5 (Herbicidal effect/phytotoxicity was 90% or greater) | Herbicidal effect Broadleaf weed [4]: 5 (Herbicidal effect/phytotoxicity was 90% or greater) | Herbicidal effect Cyperus difformis [5]: 5 (Herbicidal effect/phytotoxicity was 90% or greater) | Herbicidal effect Scirpus juncoides [6]: 5 (Herbicidal effect/phytotoxicity was 90% or greater) | Herbicidal effect Monochoria vaginalis [7]: 5 (Herbicidal effect/phytotoxicity was 90% or greater) | Herbicidal effect Chenopodium album [8]: 5 (Herbicidal effect/phytotoxicity was 90% or greater) | Herbicidal effect Amaranthus viridis [9]: 5 (Herbicidal effect/phytotoxicity was 90% or greater)

C#CCOc1cc(-c2c(Cl)n3n(c2=O)CCCCC3)c(F)cc1F [Example 1-367]
Phytotoxicity Corn (corn [1]): 0 (Herbicidal effect/phytotoxicity was 0% to 10%) | Herbicidal effect Eleocharis acicularis [2]: 5 (Herbicidal effect/phytotoxicity was 90% or greater) | Herbicidal effect Echinochloa oryzicola [3]: 5 (Herbicidal effect/phytotoxicity was 90% or greater) | Herbicidal effect Broadleaf weed [4]: 5 (Herbicidal effect/phytotoxicity was 90% or greater) | Herbicidal effect Cyperus difformis [5]: 5 (Herbicidal effect/phytotoxicity was 90% or greater) | Herbicidal effect Scirpus juncoides [6]: 5 (Herbicidal effect/phytotoxicity was 90% or greater) | Herbicidal effect Monochoria vaginalis [7]: 5 (Herbicidal effect/phytotoxicity was 90% or greater) | Herbicidal effect Chenopodium album [8]: 5 (Herbicidal effect/phytotoxicity was 90% or greater) | Herbicidal effect Amaranthus viridis [9]: 5 (Herbicidal effect/phytotoxicity was 90% or greater)

CS(=O)(=O)Nc1cc(-c2c(Cl)n3n(c2=O)CCCC3)c(F)cc1Cl [Example 5-35]
Phytotoxicity Corn (corn [1]): 0 (Herbicidal effect/phytotoxicity was 0% to 10%) | Phytotoxicity Corn (corn [10]): 0 (Herbicidal effect/phytotoxicity was 0% to 10%) | Herbicidal effect Abutilon theophrast [11]: 5 (Herbicidal effect/phytotoxicity was 90% or greater) | Herbicidal effect Chenopodium album [12]: 5 (Herbicidal effect/phytotoxicity was 90% or greater) | Herbicidal effect Amaranthus viridis [13]: 5 (Herbicidal effect/phytotoxicity was 90% or greater) | Herbicidal effect Chenopodium album [8]: 5 (Herbicidal effect/phytotoxicity was 90% or greater) | Herbicidal effect Amaranthus viridis [9]: 5 (Herbicidal effect/phytotoxicity was 90% or greater)

O=c1c(-c2cc(NS(=O)(=O)CCl)c(Cl)cc2F)c(Cl)n2n1CCOCC2 [Example 5-49]
Phytotoxicity Corn (corn [1]): 0 (Herbicidal effect/phytotoxicity was 0% to 10%) | Phytotoxicity Corn (corn [10]): 1 (Herbicidal effect/phytotoxicity was 10% to 30%) | Herbicidal effect Abutilon theophrast [11]: 5 (Herbicidal effect/phytotoxicity was 90% or greater) | Herbicidal effect Chenopodium album [12]: 5 (Herbicidal effect/phytotoxicity was 90% or greater) | Herbicidal effect Amaranthus viridis [13]: 5 (Herbicidal effect/phytotoxicity was 90% or greater) | Herbicidal effect Chenopodium album [8]: 5 (Herbicidal effect/phytotoxicity was 90% or greater) | Herbicidal effect Amaranthus viridis [9]: 5 (Herbicidal effect/phytotoxicity was 90% or greater)

O=c1c(-c2cc(NS(=O)(=O)C3CC3)c(Cl)cc2F)c(Cl)n2n1CCCC2 [Example 5-58]
Phytotoxicity Corn (corn [1]): 0 (Herbicidal effect/phytotoxicity was 0% to 10%) | Phytotoxicity Corn (corn [10]): 0 (Herbicidal effect/phytotoxicity was 0% to 10%) | Herbicidal effect Abutilon theophrast [11]: 5 (Herbicidal effect/phytotoxicity was 90% or greater) | Herbicidal effect Chenopodium album [12]: 5 (Herbicidal effect/phytotoxicity was 90% or greater) | Herbicidal effect Amaranthus viridis [13]: 5 (Herbicidal effect/phytotoxicity was 90% or greater) | Herbicidal effect Chenopodium album [8]: 5 (Herbicidal effect/phytotoxicity was 90% or greater) | Herbicidal effect Amaranthus viridis [9]: 5 (Herbicidal effect/phytotoxicity was 90% or greater)

CS(=O)(=O)N(c1cc(-c2c(Cl)n3n(c2=O)CCCC3)c(F)cc1Cl)S(C)(=O)=O [Example 5-71]
Phytotoxicity Corn (corn [1]): 0 (Herbicidal effect/phytotoxicity was 0% to 10%) | Phytotoxicity Corn (corn [10]): 0 (Herbicidal effect/phytotoxicity was 0% to 10%) | Herbicidal effect Abutilon theophrast [11]: 5 (Herbicidal effect/phytotoxicity was 90% or greater) | Herbicidal effect Chenopodium album [12]: 5 (Herbicidal effect/phytotoxicity was 90% or greater) | Herbicidal effect Amaranthus viridis [13]: 5 (Herbicidal effect/phytotoxicity was 90% or greater) | Herbicidal effect Chenopodium album [8]: 5 (Herbicidal effect/phytotoxicity was 90% or greater) | Herbicidal effect Amaranthus viridis [9]: 5 (Herbicidal effect/phytotoxicity was 90% or greater)
